This experiment concerns the target PDE4D (human recombinant) (Homo sapiens, UniProt Q08499). The experiment is described as follows: PDE4D inhibition, IMAP Fluorescence Polarisation (FP) assay. Format: biochemical. The note with it: n = 2; accuracy ±about 0.5 log unit; read-out: PDE4D pIC50 (FP assay, mean value) (converted). From the text:
Human recombinant PDE4D (HSPDE4D3A) is disclosed in P. A. Baecker et al., “Isolation of a cDNA encoding a human rolipram-sensitive cyclic AMP phoshodiesterase (PDE IVD)”, Gene, 1994, 138, 253-256.
The ability of compounds to inhibit catalytic activity at PDE4B (human recombinant) or PDE4D (human recombinant) can optionally be determined by IMAP Fluorescence Polarisation (FP) assay (IMAP Explorer kit, available from Molecular Devices Corporation, Sunnydale, Calif., USA; Molecular Devices code: R8062) in a 384-well format.
The IMAP FP assay is able to measure PDE activity in an homogenous, non-radioactive assay format. […] Binding of Fl-AMP product to the beads (coated with the immobilised trivalent cations) slows the rotation of the bound Fl-AMP and leads to an increase in the fluorescence polarisation ratio of parallel to perpendicular light. […]
Test compounds (small volume, e.g. ca. 0.5 to 1 microliters (ul), preferably ca. 0.5 ul, of solution in DMSO) are preincubated at ambient temperature (room temperature, e.g. 19-23° C.) in black 384-well microtitre plates (supplier: NUNC, code 262260) with PDE enzyme in 10 mM Tris-HCl buffer pH 7.2, 10 mM MgCl2, 0.1% (w/v) bovine serum albumin, and 0.05% NaN3 for 10-30 minutes. […] The Fluorescence Polarisation (FP) ratio of parallel to perpendicular light is measured using an Analyst™ plate reader (from Molecular Devices Corporation). […]
Background: Fluorescence polarisation rises when a labelled molecule tumbles more slowly, as on binding a larger partner.

Sequence of PDE4D (human recombinant) (Q08499 1-673 isoform Q08499-2): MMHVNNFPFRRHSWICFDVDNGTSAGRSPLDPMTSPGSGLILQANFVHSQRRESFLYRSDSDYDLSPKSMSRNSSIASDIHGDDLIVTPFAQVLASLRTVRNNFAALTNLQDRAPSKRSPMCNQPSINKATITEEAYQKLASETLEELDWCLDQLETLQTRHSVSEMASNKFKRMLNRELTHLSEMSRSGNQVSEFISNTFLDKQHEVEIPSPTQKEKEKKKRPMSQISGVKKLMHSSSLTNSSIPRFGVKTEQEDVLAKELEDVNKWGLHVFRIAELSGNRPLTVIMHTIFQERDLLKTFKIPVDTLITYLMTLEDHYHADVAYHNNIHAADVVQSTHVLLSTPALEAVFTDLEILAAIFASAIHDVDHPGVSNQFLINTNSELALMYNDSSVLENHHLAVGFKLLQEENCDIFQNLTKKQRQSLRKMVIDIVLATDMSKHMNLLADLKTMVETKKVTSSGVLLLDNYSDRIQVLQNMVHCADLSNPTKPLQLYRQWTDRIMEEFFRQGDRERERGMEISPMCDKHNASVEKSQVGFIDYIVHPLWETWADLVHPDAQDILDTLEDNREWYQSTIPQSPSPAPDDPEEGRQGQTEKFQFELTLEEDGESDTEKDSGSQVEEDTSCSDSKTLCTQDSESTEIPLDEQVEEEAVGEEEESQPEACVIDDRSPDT

In the case of `CCn1ncc2c(NC3CCN(C(N)=O)CC3)c(C(=O)NCc3ccc(C)c(C)c3)cnc21` [compound of formula (I), 4-{[1-(aminocarbonyl)-4-piperidinyl]amino}-N-[(3,4-dimethylphenyl)methyl]-1-ethyl-1H-pyrazolo[3,4-b]pyridine-5-carboxamide], the IC50 is 0.55 nM.

The values are drawn from patent US7709497B2, “Pyrazolo[3,4-b]pyridine compound, and its use as a PDE4 inhibitor” (Glaxo Group Limited, priority 2004, dated 2010).
